Laboratory results from US12522607B2, “Substituted pyrazolo[3,4-d]pyrimidines as wee-1 inhibitors” (WIGEN BIOMEDICINE TECHNOLOGY (SHANGHAI) CO., LTD., priority 2020, dated 2026).

Tests used:
[1] = target: T1, Wee-1 kinase (Homo sapiens, UniProt P30291); experiment: Inhibitory activity against Wee-1 kinase (Lanthra Screen Wee-1 kinase kit, Tracer 178); type: binding; settings: Wee-1 kinase 5 nM, Tracer 178 50 nM, 1 h room temperature
T1 construct: purchased Invitrogen
Description: Example 342. Assay for Inhibitory Activity of Compounds Against Wee-1 Kinase
The inhibitory activity of compounds against Wee-1 kinase was determined by using the Lanthra Screen Wee-1 kinase kit (Invitrogen). 5 μL of the compound diluted in a gradient with DMSO, 5 μL. of Wee-1 kinase (at a final concentration of 5 nM), 5 μL of an Eu-Anti-GST antibody (at a final concentration of 2 nM) mixture and 5 μL of kinase Tracer 178 (at a final concentration of 50 nM) were mixed well. The plate was read after incubation at room temperature for one hour. For comparison with the DMSO solvent control group, IC50 for the inhibition activity of the compounds against Wee-1 kinase was calculated.

[2] = tested on: HT29 cells; experiment: Antiproliferative activity against HT29 cells (Cell Titer-Lumi, ATP content); type: cell-based; settings: Homo sapiens, HT-29, 72 after compound addition, read-out: HT-29 cells Anti-proliferative activity (IC50 for the inhibition against HT-29 cell growth)
Description: Example 343. Assay for Antiproliferative Activity Against HT29 Cells
3000 HT29 cells were seed in a 384-well plate (Fisher 142762). After the cells adhered to the wall overnight, the compounds diluted in a gradient were added. 72 later, Cell Titer-Lumi (Beyotime C0068XL) was added to determine the content of ATP in the cells. The growth of the cells was evaluated, and the IC50 for the inhibition of the compounds against cell growth was calculated.

T1 sequence (P30291 whole entry): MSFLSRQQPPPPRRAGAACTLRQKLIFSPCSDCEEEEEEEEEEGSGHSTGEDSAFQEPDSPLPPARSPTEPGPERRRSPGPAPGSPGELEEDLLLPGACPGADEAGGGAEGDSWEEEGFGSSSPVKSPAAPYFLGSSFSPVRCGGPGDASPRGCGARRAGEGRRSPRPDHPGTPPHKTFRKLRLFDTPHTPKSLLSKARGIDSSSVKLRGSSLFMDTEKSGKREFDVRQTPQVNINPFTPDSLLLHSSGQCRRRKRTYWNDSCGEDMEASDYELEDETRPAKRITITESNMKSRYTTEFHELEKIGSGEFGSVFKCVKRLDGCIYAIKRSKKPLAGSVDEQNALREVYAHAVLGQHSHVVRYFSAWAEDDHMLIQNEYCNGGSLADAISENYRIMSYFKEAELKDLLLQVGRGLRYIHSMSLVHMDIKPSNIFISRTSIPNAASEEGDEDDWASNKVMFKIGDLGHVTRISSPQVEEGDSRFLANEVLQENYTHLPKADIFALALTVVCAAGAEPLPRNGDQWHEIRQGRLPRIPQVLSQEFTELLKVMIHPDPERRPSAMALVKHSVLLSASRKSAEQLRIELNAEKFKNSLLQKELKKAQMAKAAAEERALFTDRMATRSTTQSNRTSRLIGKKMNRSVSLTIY

Row | SMILES | IC50 [1] [nM] | IC50 [2] [nM]
1 | C=CCn1c(=O)c2cnc(Nc3ccc(N4CC(N(C)C)C4)c(OC)c3)nc2n1-c1ccc(=O)n(C(C)C)n1 [Compound 79] | ≤ 30 | ≤ 1000
2 | C=CCn1c(=O)c2cnc(Nc3ccc(N4CC(N5CCC5)C4)cc3)nc2n1-c1ccc(=O)n(C(C)C)n1 [Compound 80] | ≤ 30 | 1000 to 3000
3 | C=CCn1c(=O)c2cnc(Nc3ccc(N4CC(N5CCC5)C4)c(C)c3)nc2n1-c1ccc(=O)n(C(C)C)n1 [Compound 81] | ≤ 30 | ≤ 1000
4 | C=CCn1c(=O)c2cnc(Nc3ccc(N4CC(N5CCC5)C4)c(OC)c3)nc2n1-c1ccc(=O)n(C(C)C)n1 [Compound 82] | ≤ 30 | ≤ 1000
5 | C=CCn1c(=O)c2cnc(Nc3ccc(N4CC(N5CCCC5)C4)cc3)nc2n1-c1ccc(=O)n(C(C)C)n1 [Compound 83] | ≤ 30 | ≤ 1000
6 | C=CCn1c(=O)c2cnc(Nc3ccc(N4CC(N5CCCC5)C4)c(C)c3)nc2n1-c1ccc(=O)n(C(C)C)n1 [Compound 84] | ≤ 30 | ≤ 1000
7 | C=CCn1c(=O)c2cnc(Nc3ccc(N4CC(N5CCCC5)C4)c(OC)c3)nc2n1-c1ccc(=O)n(C(C)C)n1 [Compound 85] | ≤ 30 | ≤ 1000
8 | C=CCn1c(=O)c2cnc(Nc3ccc(N4CCC(N5CCC5)CC4)cc3)nc2n1-c1ccc(=O)n(C(C)C)n1 [Compound 86] | ≤ 30 | ≤ 1000
9 | C=CCn1c(=O)c2cnc(Nc3ccc(N4CCC(N5CCC5)CC4)c(C)c3)nc2n1-c1ccc(=O)n(C(C)C)n1 [Compound 87] | ≤ 30 | ≤ 1000
10 | C=CCn1c(=O)c2cnc(Nc3ccc(N4CCC(N5CCC5)CC4)c(OC)c3)nc2n1-c1ccc(=O)n(C(C)C)n1 [Compound 88] | ≤ 30 | ≤ 1000
11 | C=CCn1c(=O)c2cnc(Nc3ccc(N4CCC(N5CCCC5)CC4)cc3)nc2n1-c1ccc(=O)n(C(C)C)n1 [Compound 89] | ≤ 30 | ≤ 1000
12 | C=CCn1c(=O)c2cnc(Nc3ccc(N4CCC(N5CCCC5)CC4)c(C)c3)nc2n1-c1ccc(=O)n(C(C)C)n1 [Compound 90] | ≤ 30 | ≤ 1000
13 | C=CCn1c(=O)c2cnc(Nc3ccc(N4CCC(N5CCCC5)CC4)c(OC)c3)nc2n1-c1ccc(=O)n(C(C)C)n1 [Compound 91] | ≤ 30 | ≤ 1000
14 | C=CCn1c(=O)c2cnc(Nc3ccc(N4CC[C@H](N(C)C)C4)cc3)nc2n1-c1ccc(=O)n(C(C)C)n1 [Compound 92] | ≤ 30 | ≤ 1000
15 | C=CCn1c(=O)c2cnc(Nc3ccc(N4CC[C@H](N(C)C)C4)c(C)c3)nc2n1-c1ccc(=O)n(C(C)C)n1 [Compound 93] | ≤ 30 | ≤ 1000
16 | C=CCn1c(=O)c2cnc(Nc3ccc(N4CC[C@H](N(C)C)C4)c(OC)c3)nc2n1-c1ccc(=O)n(C(C)C)n1 [Compound 94] | ≤ 30 | ≤ 1000
17 | C=CCn1c(=O)c2cnc(Nc3ccc(N4CC[C@@H](N(C)C)C4)cc3)nc2n1-c1ccc(=O)n(C(C)C)n1 [Compound 95] | ≤ 30 | ≤ 1000
18 | C=CCn1c(=O)c2cnc(Nc3ccc(N4CC[C@@H](N(C)C)C4)c(C)c3)nc2n1-c1ccc(=O)n(C(C)C)n1 [Compound 96] | ≤ 30 | ≤ 1000
19 | C=CCn1c(=O)c2cnc(Nc3ccc(N4CC[C@@H](N(C)C)C4)c(OC)c3)nc2n1-c1ccc(=O)n(C(C)C)n1 [Compound 97] | ≤ 30 | ≤ 1000
20 | C=CCn1c(=O)c2cnc(Nc3ccc(N4CCC(N(C)C)CC4)cc3)nc2n1-c1ccc(=O)n(C(C)C)n1 [Compound 98] | ≤ 30 | ≤ 1000
21 | C=CCn1c(=O)c2cnc(Nc3ccc(N4CCC(N(C)C)CC4)c(C)c3)nc2n1-c1ccc(=O)n(C(C)C)n1 [Compound 99] | ≤ 30 | ≤ 1000
22 | C=CCn1c(=O)c2cnc(Nc3ccc(N4CCC(N(C)C)CC4)c(OC)c3)nc2n1-c1ccc(=O)n(C(C)C)n1 [Compound 100] | ≤ 30 | ≤ 1000
23 | C=CCn1c(=O)c2cnc(Nc3ccc(N4CCC(N)CC4)cc3)nc2n1-c1ccc(=O)n(C(C)C)n1 [Compound 101] | ≤ 30 | 1000 to 3000
24 | C=CCn1c(=O)c2cnc(Nc3ccc(N4CCC(N)CC4)c(C)c3)nc2n1-c1ccc(=O)n(C(C)C)n1 [Compound 102] | ≤ 30 | ≤ 1000
25 | C=CCn1c(=O)c2cnc(Nc3ccc(N4CCC(N)CC4)c(OC)c3)nc2n1-c1ccc(=O)n(C(C)C)n1 [Compound 103] | ≤ 30 | ≤ 1000
26 | C=CCn1c(=O)c2cnc(Nc3ccc(N4CCC(NC)CC4)cc3)nc2n1-c1ccc(=O)n(C(C)C)n1 [Compound 104] | ≤ 30 | ≤ 1000

Row | SMILES | IC50 [1] [nM] | IC50 [2] [nM]
27 | C=CCn1c(=O)c2cnc(Nc3ccc(N4CCC(NC)CC4)c(C)c3)nc2n1-c1ccc(=O)n(C(C)C)n1 [Compound 105] | ≤ 30 | ≤ 1000
28 | C=CCn1c(=O)c2cnc(Nc3ccc(N4CCC(NC)CC4)c(OC)c3)nc2n1-c1ccc(=O)n(C(C)C)n1 [Compound 106] | ≤ 30 | ≤ 1000
29 | C=CCn1c(=O)c2cnc(Nc3ccc(N4CCC(C)(N)CC4)cc3)nc2n1-c1ccc(=O)n(C(C)C)n1 [Compound 107] | ≤ 30 | ≤ 1000
30 | C=CCn1c(=O)c2cnc(Nc3ccc(N4CCC(C)(N)CC4)c(C)c3)nc2n1-c1ccc(=O)n(C(C)C)n1 [Compound 108] | ≤ 30 | ≤ 1000
31 | C=CCn1c(=O)c2cnc(Nc3ccc(N4CCC(C)(N)CC4)c(OC)c3)nc2n1-c1ccc(=O)n(C(C)C)n1 [Compound 109] | ≤ 30 | ≤ 1000
32 | C=CCn1c(=O)c2cnc(Nc3ccc(N4CCC(C)(NC)CC4)cc3)nc2n1-c1ccc(=O)n(C(C)C)n1 [Compound 110] | ≤ 30 | ≤ 1000
33 | C=CCn1c(=O)c2cnc(Nc3ccc(N4CCC(C)(NC)CC4)c(C)c3)nc2n1-c1ccc(=O)n(C(C)C)n1 [Compound 111] | ≤ 30 | ≤ 1000
34 | C=CCn1c(=O)c2cnc(Nc3ccc(N4CCC(C)(NC)CC4)c(OC)c3)nc2n1-c1ccc(=O)n(C(C)C)n1 [Compound 112] | ≤ 30 | ≤ 1000
35 | C=CCn1c(=O)c2cnc(Nc3ccc(N4CCC(C)(N(C)C)CC4)cc3)nc2n1-c1ccc(=O)n(C(C)C)n1 [Compound 113] | ≤ 30 | ≤ 1000
36 | C=CCn1c(=O)c2cnc(Nc3ccc(N4CCC(C)(N(C)C)CC4)c(C)c3)nc2n1-c1ccc(=O)n(C(C)C)n1 [Compound 114] | ≤ 30 | ≤ 1000
37 | C=CCn1c(=O)c2cnc(Nc3ccc(N4CCC(C)(N(C)C)CC4)c(OC)c3)nc2n1-c1ccc(=O)n(C(C)C)n1 [Compound 115] | ≤ 30 | ≤ 1000
38 | C=CCn1c(=O)c2cnc(Nc3ccc(N4C[C@@H](C)N[C@@H](C)C4)cc3)nc2n1-c1ccc(=O)n(C(C)C)n1 [Compound 116] | ≤ 30 | ≤ 1000
39 | C=CCn1c(=O)c2cnc(Nc3ccc(N4C[C@@H](C)N(C)[C@@H](C)C4)cc3)nc2n1-c1ccc(=O)n(C(C)C)n1 [Compound 117] | ≤ 30 | ≤ 1000
40 | C=CCn1c(=O)c2cnc(Nc3ccc(N4C[C@@H](C)N[C@@H](C)C4)c(C)c3)nc2n1-c1ccc(=O)n(C(C)C)n1 [Compound 118] | ≤ 30 | ≤ 1000
41 | C=CCn1c(=O)c2cnc(Nc3ccc(N4C[C@@H](C)N(C)[C@@H](C)C4)c(C)c3)nc2n1-c1ccc(=O)n(C(C)C)n1 [Compound 119] | ≤ 30 | ≤ 1000
42 | C=CCn1c(=O)c2cnc(Nc3ccc(N4C[C@@H](C)N[C@@H](C)C4)c(Cl)c3)nc2n1-c1ccc(=O)n(C(C)C)n1 [Compound 120] | ≤ 30 | ≤ 1000
43 | C=CCn1c(=O)c2cnc(Nc3ccc(N4C[C@@H](C)N(C)[C@@H](C)C4)c(Cl)c3)nc2n1-c1ccc(=O)n(C(C)C)n1 [Compound 121] | ≤ 30 | ≤ 1000
44 | C=CCn1c(=O)c2cnc(Nc3ccc(N4C[C@@H](C)N[C@@H](C)C4)c(C(F)(F)F)c3)nc2n1-c1ccc(=O)n(C(C)C)n1 [Compound 122] | ≤ 30 | ≤ 1000
45 | C=CCn1c(=O)c2cnc(Nc3ccc(N4C[C@@H](C)N(C)[C@@H](C)C4)c(C(F)(F)F)c3)nc2n1-c1ccc(=O)n(C(C)C)n1 [Compound 123] | ≤ 30 | ≤ 1000
46 | C=CCn1c(=O)c2cnc(Nc3ccc(N4C[C@H](C)NC[C@H]4C)cc3)nc2n1-c1ccc(=O)n(C(C)C)n1 [Compound 124] | ≤ 30 | ≤ 1000
47 | C=CCn1c(=O)c2cnc(Nc3ccc(N4C[C@H](C)N(C)C[C@H]4C)cc3)nc2n1-c1ccc(=O)n(C(C)C)n1 [Compound 125] | ≤ 30 | ≤ 1000
48 | C=CCn1c(=O)c2cnc(Nc3ccc(N4C[C@H](C)NC[C@H]4C)c(C)c3)nc2n1-c1ccc(=O)n(C(C)C)n1 [Compound 126] | ≤ 30 | ≤ 1000
49 | C=CCn1c(=O)c2cnc(Nc3ccc(N4C[C@H](C)N(C)C[C@H]4C)c(C)c3)nc2n1-c1ccc(=O)n(C(C)C)n1 [Compound 127] | ≤ 30 | ≤ 1000
50 | C=CCn1c(=O)c2cnc(Nc3ccc(N4CCN[C@@H](C)C4)cc3)nc2n1-c1ccc(=O)n(C(C)C)n1 [Compound 128] | ≤ 30 | ≤ 1000
51 | C=CCn1c(=O)c2cnc(Nc3ccc(N4CCN(C)[C@@H](C)C4)cc3)nc2n1-c1ccc(=O)n(C(C)C)n1 [Compound 129] | ≤ 30 | ≤ 1000
